PMC10072296, “A Novel CCK Receptor GPR173 Mediates Potentiation of GABAergic Inhibition” (The Journal of Neuroscience, 2023)

Legend:
CCK2R = experiment: Cell surface binding assay, Flag-CCK2R; set-up: species or system human; details: transfected HEK293T cells; HHBS with 20 mM HEPES, pH 7.4, 30 min, room temperature; anti-HA/anti-Flag immunofluorescence, confocal; n = 33-40 cells, three independent experiments
Method: (§1) We transfected HEK293T cells with pCDNA3.1(+)-Flag-GPCR (purchased from Public Protein/Plasmid Library or made in our laboratory based on a pCDNA3.1(+) backbone). […] After three washes with HHBS, cells were fixed in 4% paraformaldehyde (PFA) and 4% sucrose in PBS for 15 min at room temperature. Cells were blocked in 5% normal goat serum in PBS, and staining was performed in detergent-free conditions without cell permeabilization after three washes by PBS. We used primary antibody rabbit anti-HA (catalog #8146, Cell Signaling Technology), anti-GPR173 (catalog #PA5-50 976, Thermo Fisher Scientific), and mouse anti-Flag (catalog #3724, Cell Signaling Technology) to detect HA and Flag tags. Images were captured on a Leica SP8 confocal microscope. Images within each experiment were collected using identical laser power, offset, and gain.

GPR173 = experiment: Cell surface binding assay, Flag-GPR173; set-up: species or system human; details: transfected HEK293T cells; HHBS with 20 mM HEPES, pH 7.4, 30 min, room temperature; Fanti-HA/Fanti-Flag, confocal; n = 33-40 cells, three independent experiments
Method: as §1

HTR1B = experiment: Cell surface binding assay, Flag-HTR1B; set-up: species or system human; details: transfected HEK293T cells (negative/background control); HHBS pH 7.4, 30 min, room temperature; confocal
Method: as §1

[1] = target: T1, GPR173 (CHO-GPR173 cells) (Homo sapiens, UniProt Q9NS66); experiment: Ca2+ imaging assay in CHO-GPR173 cells; type: cell-based
T1 construct: expressed in transfected cells; host or cells: CHO cells, lentiviral infection (pLVX-puro-GPCR), puromycin selection, monoclonal line
Method: CHO and infected CHO cells (CHO-GPCRs) were cultivated at 37°C in a humidified atmosphere with 5% CO2 in DMEM/F-12 medium (Thermo Fisher Scientific) supplemented with 10% FBS (Natocor Industria Biológica).
For Ca^2+ mobilization by a confocal microscope, ∼8 × 10^4 transfected cells were seeded in each well of an eight-well chambered cover glass (Thermo Fisher Scientific) the day before the Ca^2+ imaging assay. Then, 5 μM Fluo-8 (AAT Bioquest) dissolved in HHBS solution was incubated with the cells for 30 min in a cell incubator and 30 min at room temperature after removing the culture medium. These cells were washed three times with HHBS, and 360 µl HHBS was added. Subsequently, images of these cells were captured by a Zeiss 710 nonlinear optical confocal microscope before and after being treated with 10× compounds or HHBS solution.
Cells were cultured at 37°C, and 5% CO2 in DMEM/F-12 medium (Thermo Fisher Scientific) containing 10% FBS (Natocor Industria Biológica) and washed with DMEM/F-12 medium once after overnight incubation.

[2] = tested on: IPSCs of pyramidal neurons in auditory cortex (AC) brain slices; experiment: In vitro patch-clamp recording of laser-evoked IPSCs in pyramidal neurons; details: devazepide 60 nM in bath solution, brain slices from mDlx-DIO-ChR2-mCherry-injected CCK-Cre mice
Excerpt: For brain slice recording experiments, we injected rAAV9-mDlx-DIO-ChR2-mCherry-WPRE-pA (5.18E + 12 vg/ml; BrainVTA) into the AC of CCK-Cre and PV-Cre mice.
In the in vivo brain slice recording experiments, we adopted a protective cutting and recovery method to prepare acute brain slices from CCK-Cre, PV-Cre, CCK-KO, and CCK1R/2R-KO mice to achieve a higher success rate for patch clamping, as previously described ([Chen et al., 2019]). […]
We performed whole-cell recordings with a MultiClamp 700B amplifier and Digital 1440A digitizer (Molecular Devices) targeting the AC in the brain slices in room temperature aCSF containing the following (in mM): 119 NaCl, 2.5 KCl, 1.25 NaH2PO4, 24 NaHCO3, 12.5 glucose, 2 CaCl2·4H2O, and 2 MgSO4·7H2O, ∼25°C). […] We recorded IPSCs in response to the laser stimulation (1 pulse per 15 s, 5 ms in duration) under voltage-clamp recording mode (holding at −60 mV to −50 mV) for 5 min as the baseline before and for 25 min after HFLS or LFLS. […] For the normalization of recorded IPSCs in the CCK-Cre, PV-Cre, CCK-KO, and CCK1R/2R-KO mice, we selected only patched neurons with IPSCs >35 pA.

T1 sequence (Q9NS66 whole entry): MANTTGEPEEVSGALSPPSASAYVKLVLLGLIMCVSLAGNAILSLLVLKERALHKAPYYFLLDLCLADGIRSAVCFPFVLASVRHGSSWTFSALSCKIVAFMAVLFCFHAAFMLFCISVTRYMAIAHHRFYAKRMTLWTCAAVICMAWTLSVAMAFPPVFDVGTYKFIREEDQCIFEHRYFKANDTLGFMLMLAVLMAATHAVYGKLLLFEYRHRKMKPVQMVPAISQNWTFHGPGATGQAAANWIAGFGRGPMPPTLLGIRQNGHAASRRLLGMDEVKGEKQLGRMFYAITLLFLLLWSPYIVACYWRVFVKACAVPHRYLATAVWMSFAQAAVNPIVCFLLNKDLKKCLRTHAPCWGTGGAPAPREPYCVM

Antagonistic action on GPR173, rank ([1]; CHO-GPR173, 10 nM CCK8s, compared with loxiglumide, YF476 and L365,260)	IC50 ([1]; read-out: IC50, antagonism of CCK8s-induced Ca2+ response) [nM]	Molecule	Binding to Flag-CCK2R (Fanti-HA/Fanti-Flag) (CCK2R)	Binding to Flag-GPR173 (GPR173)	Binding to Flag-HTR1B (HTR1B)	Block of HFLS-induced potentiation of IPSCs [2]
–	–	HA-tagged CCK8s: HA-(ε-Ahx)2-CCK variant probe of CCK8s	significantly larger ratio of CCK ligand HA-tag signal to CCK2R Flag signal (Fanti-HA/Fanti-Flag) than that of the HA-(ε-Ahx)2 control group	could only bind to HA-tagged CCK8	No binding	–
–	–	HA-tagged CCK8ns: HA-(ε-Ahx)2-CCK variant probe of nonsulfated CCK8	significantly larger ratio of CCK ligand HA-tag signal to CCK2R Flag signal (Fanti-HA/Fanti-Flag) than that of the HA-(ε-Ahx)2 control group	not HA-tagged CCK4 or CCK8ns	No binding	–
highest antagonistic action on GPR173	12.3	CN1C(=O)[C@@H](NC(=O)c2cc3ccccc3[nH]2)N=C(c2ccccc2)c2ccccc21 [devazepide]	–	–	–	fully blocked the HFLS-induced potentiation of IPSCs
